Patent publication US11464825B2, “Adiponectin peptidomimetics for treating ocular disorders” (Allysta Pharmaceuticals, Inc., priority 2015, dated 2022)
Primed or numbered codes have the meaning given here. Where no end group is shown, it is not given here. [ ]: non-standard residue; d: D form. Dab′ = 2,3-diamino butyric acid; Nva = CCC[C@H](N)C(=O)O

What was measured:
[1] = test system: experimental dry eye (EDE) mice; assay: Corneal fluorescein staining score in experimental dry eye (EDE) mice; type: in vivo, C57BL/6 mice; conditions: 0.01% in BSS, 3 times a day; for corneal staining (corneal irregularity) compared to untreated EDE mice: topical bilateral 2 μl/eye, score 0-4 averaged over five regions, day 5 and day 10, p-value <0.05 vs. EDE; for corneal surfaces compared to untreated normal mice (UT) and positive control globular adiponectin-treated mice (gAdipo): topical, EDE mice
Protocol: (§1) Experimental dry eye (EDE) was induced in 8-week old female C57BL/6 mice by subcutaneous injection of 0.5 mg/0.2 mL scopolamine hydrobromide (Sigma-Aldrich, St. Louis, Mo.) three times a day (9 AM, 1:30 PM and 6 PM). A dose of 0.3 mL scopolamine hydrobromide was administered at each injection. The mice were also exposed to an air draft and 30% ambient humidity. 6 experimental groups used in this study included: (1) untreated control mice (UT; no dry eye treatment and no topical treatment); (2) untreated EDE control mice (EDE; received no topical administration); (3) EDE control mice received a balanced salt solution (BSS); (4) EDE mice received 0.01% single chain adiponectin peptidomimetic (ADP355) in BSS; (5) EDE mice receiving 0.01% peptide dimer adiponectin peptidomimetic (ADP399) in BSS; and (6) EDE mice receiving 0.01% recombinant globular adiponectin (gAdipo) in BSS. Each group included 5 mice. EDE mice treated with BSS received topical bilateral administration of […], 3 times a day. EDE mice treated with ADP355 received topical bilateral administration of 2 μl/eye, 3 times a day. EDE mice treated with ADP-399 received topical bilateral administration of 2 μl/eye, 3 times a day. The gAdipo treated mice served as a positive treatment control. Mice were evaluated at baseline, day 5 and day 10 after the treatment initiation. In some experiments, ADP355, ADP-399 and gAdipo were resuspended in 0.01% BSA.
The severity of corneal epithelial damage was evaluated by corneal fluorescein staining. Briefly, 1% fluorescein dye (1 μl) was instilled into the eye and then the eye was washed with saline. 10 minutes after application of the dye, the eye was photographed with a slip lamp microscope using a cobalt blue light. The stained area was graded using a scoring system by two blinded observers. […] The average score from the five regions was recorded. […] In addition, the adiponectin peptidomimetic-treated mice (ADP355 and ADP-399) had corneal surfaces that were similar to those of untreated normal mice (UT) and positive control globular adiponectin-treated mice (gAdipo). The corneal surface scores in all groups at day 10 were similar to those at day 5 after treatment initiation.

[2] = test system: experimental dry eye (EDE) mice; assay: Tear volume by phenol red thread tear test in experimental dry eye (EDE) mice; type: in vivo, C57BL/6 mice; conditions: 0.01% in BSS, 3 times a day; for tear production, as measured by tear volume, compared to untreated or BSS treated EDE mice: topical bilateral 2 μl/eye, day 5 and day 10 after treatment initiation, p-value <0.05 vs. EDE; for difference in tear volume among those treated with ADP355, ADP399 and globular adiponectin: topical, EDE mice
Protocol: as §1
Tear volume was measured using a phenol red thread tear test. Briefly, a cotton thread treated with phenol red at its tip (Zone-Quick; Oasis, Glendora, Calif.) was held with jeweler's forceps and placed in the tear meniscus of the lateral canthus for 20 secs to contact tear fluid. Using a microscope, the length of the red portion (wet portion) of the thread was measured in millimeters. A standard curve was derived to convert the distance measurement into tear volume.

DAsn-Ile-Pro-Nva-Leu-Tyr-DSer-Phe-Ala-DSer-NH2 ([dN]IP[Nva]LY[dS]FA[dS]-NH2; N-terminus assumed; SMILES CCC[C@H](NC(=O)[C@@H]1CCCN1C(=O)[C@@H](NC(=O)[C@H](N)CC(N)=O)[C@@H](C)CC)C(=O)N[C@@H](CC(C)C)C(=O)N[C@@H](Cc1ccc(O)cc1)C(=O)N[C@H](CO)C(=O)N[C@@H](Cc1ccccc1)C(=O)N[C@@H](C)C(=O)N[C@H](CO)C(N)=O) [ADP355, single chain adiponectin peptidomimetic]
corneal staining (corneal irregularity) compared to untreated EDE mice [1]: less corneal staining | corneal surfaces compared to untreated normal mice (UT) and positive control globular adiponectin-treated mice (gAdipo) [1]: similar | tear production, as measured by tear volume, compared to untreated or BSS treated EDE mice [2]: higher | difference in tear volume among those treated with ADP355, ADP399 and globular adiponectin [2]: no significant difference

(DAsn-Ile-Pro-Nva-Leu-Tyr-DSer-Phe-Ala-DSer-His-Pro)2-Dab-NH2 ([dN]IP[Nva]LY[dS]FA[dS]HP[Dab′]-NH2; also: branched dimer: two chains joined via Dab) [ADP399, linear branched dimer of ADP355]
corneal staining (corneal irregularity) compared to untreated EDE mice [1]: less corneal staining | corneal surfaces compared to untreated normal mice (UT) and positive control globular adiponectin-treated mice (gAdipo) [1]: similar | tear production, as measured by tear volume, compared to untreated or BSS treated EDE mice [2]: higher | difference in tear volume among those treated with ADP355, ADP399 and globular adiponectin [2]: no significant difference
